# Results taken from patent publication US20230129359A1, “MUSCARINIC RECEPTOR 4 ANTAGONISTS AND METHODS OF USE” (Neurocrine Biosciences, Inc., priority 2020, published 2023).
# Target: T1, human M4 receptor (Homo sapiens, UniProt P08173)
# T1 construct: expressed in transfected cells; host or cells: CHO cells
# T1 sequence (P08173 1-479): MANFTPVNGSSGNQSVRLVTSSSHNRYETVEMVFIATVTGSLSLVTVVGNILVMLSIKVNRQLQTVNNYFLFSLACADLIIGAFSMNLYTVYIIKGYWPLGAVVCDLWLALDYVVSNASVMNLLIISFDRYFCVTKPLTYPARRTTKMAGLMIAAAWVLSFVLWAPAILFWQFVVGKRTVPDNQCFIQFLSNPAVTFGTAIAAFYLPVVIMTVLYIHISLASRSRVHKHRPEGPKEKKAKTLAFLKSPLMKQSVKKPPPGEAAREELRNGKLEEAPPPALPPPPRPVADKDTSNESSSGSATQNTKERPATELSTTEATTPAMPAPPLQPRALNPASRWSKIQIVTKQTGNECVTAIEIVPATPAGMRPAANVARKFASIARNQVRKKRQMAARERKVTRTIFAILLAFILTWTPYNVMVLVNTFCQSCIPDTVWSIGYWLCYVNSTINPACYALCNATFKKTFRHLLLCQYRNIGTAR
# Assay: Radioligand ([3H]N-methylscopolamine) binding assay, membranes from CHO cells expressing human M4 receptor
# Conditions: Ki against human M4 receptor; membranes from CHO cells; tritiated N-methylscopolamine 1.5 nM; read-out: K
# How it was run: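 Ki values derive from displacement of tritiated N-methylscopolamine (1.5 nM) from human M4 receptor in CHO membranes. Membranes, radioligand and twelve-point compound series were incubated together at 37 °C for 90 minutes in pH 7.4 HEPES/NaCl/MgCl2/EDTA buffer. Rapid vacuum filtration over polyethylenimine-pretreated filters was followed by radioactivity counting.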
row,Ki [nM],Compound
1,< 10,"C[C@@H]1CN(c2ncc(C(F)(F)F)cn2)C[C@H](C)N1C(=O)NC1CC2(C1)CN(Cc1ccc(Cl)cc1)C2 [Compound 325, (2R,6S)-N-{2-[(4-chlorophenyl)methyl]-2-azaspiro[3.3]heptan-6-yl}-2,6-dimethyl-4-[5-(trifluoromethyl)pyrimidin-2-yl]piperazine-1-carboxamide]"
2,10 to 100,"C[C@@H]1CN(c2nc3cc(C(F)(F)F)cnc3s2)C[C@@H](C)N1C(=O)OC1CC2(C1)CN(Cc1ccccc1)C2 [Compound 366, 2-benzyl-2-azaspiro[3.3]heptan-6-yl (2R,6R)-2,6-dimethyl-4-[6-(trifluoromethyl)-[1,3]thiazolo[5,4-b]pyridin-2-yl]piperazine-1-carboxylate]"
3,< 10,"C[C@@H]1CN(c2ncc(C(F)(F)F)cn2)[C@@H](C)CN1C(=O)OC1CC2(C1)CN(Cc1ccccc1)C2 [Compound 136, 2-Benzyl-2-azaspiro[3.3]heptan-6-yl (2R,5S)-2,5-dimethyl-4-[5-(trifluoromethyl)pyrimidin-2-yl]piperazine-1-carboxylate]"
4,< 10,"C[C@@H]1CN(c2ncc(C(F)(F)F)cn2)CCN1C(=O)OC1CC2(C1)CN(Cc1ccccc1)C2 [Compound 132, 2-benzyl-2-azaspiro[3.3]heptan-6-yl (2R)-2-methyl-4-[5-(trifluoromethyl)pyrimidin-2-yl]piperazine-1-carboxylate]"
5,10 to 100,"C[C@@H]1CN(c2cnc(C(F)(F)F)cn2)C[C@H](C)N1C(=O)NC1CC2(C1)CN(Cc1ccccc1)C2 [Compound 62, (2R,6S)—N-{2-Benzyl-2-azaspiro[3.3]heptan-6-yl}-2,6-dimethyl-4-[5-(trifluoromethyl)pyrazin-2-yl]piperazine-1-carboxamide]"
6,10 to 100,"C[C@@H]1CN(c2ncc(C#N)cn2)[C@@H](C)CN1C(=O)OC1CC2(C1)CN(Cc1ccc(F)cc1)C2 [Compound 473, 2-[(4-fluorophenyl)methyl]-2-azaspiro[3.3]heptan-6-yl (2R,5S)-4-(5-cyanopyrimidin-2-yl)-2,5-dimethylpiperazine-1-carboxylate]"
7,10 to 100,"[2H]c1c([2H])c([2H])c(C([2H])([2H])N2CC3(CC(OC(=O)N4C[C@H](C)N(c5cnc(C(F)(F)F)cn5)C[C@H]4C)C3)C2)c([2H])c1[2H] [Compound 361, 2-[(^2H5)phenyl(^2H2)methyl]-2-azaspiro[3.3]heptan-6-yl (2R,5S)-2,5-dimethyl-4-[5-(trifluoromethyl)pyrazin-2-yl]piperazine-1-carboxylate]"
8,< 10,"C[C@@H]1CN(c2nc3ccc(C(F)(F)F)cc3s2)C[C@H](C)N1C(=O)NC1CC2(C1)CN(Cc1ccccc1)C2 [Compound 216, (2R,6S)-N-{2-benzyl-2-azaspiro[3.3]heptan-6-yl}-2,6-dimethyl-4-[6-(trifluoromethyl)-1,3-benzothiazol-2-yl)piperazine-1-carboxamide]"
9,10 to 100,"C[C@@H]1CN(c2nc3ncc(C(F)(F)F)cc3s2)C[C@H](C)N1C(=O)OC1CC2(C1)CN(Cc1ccccc1)C2 [Compound 431, 2-benzyl-2-azaspiro[3.3]heptan-6-yl (2R,6S)-2,6-dimethyl-4-[6-(trifluoromethyl)-[1,3]thiazolo[4,5-b]pyridin-2-yl]piperazine-1-carboxylate]"
10,10 to 100,"CC(C)c1ccc(CN2CC3(CC(NC(=O)N4[C@H](C)CN(c5ncc(C(F)(F)F)cn5)C[C@@H]4C)C3)C2)cc1 [Compound 316, (2R,6S)-2,6-dimethyl-N-(2-{[4-(propan-2-yl)phenyl]methyl}-2-azaspiro[3.3]heptan-6-yl)-4-[5-(trifluroomethyl)pyrimidin-2-yl]piperazine-1-carboxamide]"
11,10 to 100,"C[C@@H]1CN(c2ncc(C(F)(F)F)cn2)CCN1C(=O)OC1(C(F)F)CC2(CN(Cc3ccccc3)C2)C1 [Compound 349, 2-benzyl-6-(difluoromethyl)-2-azaspiro[3.3]heptan-6-yl (2R)-2-methyl-4-[5-(trifluoromethyl)pyrimidin-2-yl]piperazine-1-carboxylate]"
12,< 10,"C[C@@H]1CN(c2nc3ccc(F)cc3s2)[C@@H](C)CN1C(=O)OC1CC2(C1)CN(Cc1ccc(F)cc1)C2 [Compound 383, 2-[(4-fluorophenyl)methyl]-2-azaspiro[3.3]heptan-6-yl (2R,5S)-4-(6-fluoro-1,3-benzothiazol-2-yl)-2,5-dimethylpiperazine-1-carboxylate]"
13,100 to 1000,"CCOc1ccc(N2C[C@@H](C)N(C(=O)NC3CC4(C3)CN(Cc3ccccc3)C4)[C@@H](C)C2)cc1 [Compound 284, (2R,6S)-N-{2-benzyl-2-azaspiro[3.3]heptan-6-yl}-4-(4-ethoxyphenyl)-2,6-dimethylpiperazine-1-carboxamide]"
14,10 to 100,"C[C@@H]1CN(c2ncc(C#N)cn2)[C@@H](C)CN1C(=O)OC1CC2(C1)CN(Cc1ccccc1)C2 [Compound 138, 2-benzyl-2-azaspiro[3.3]heptan-6-yl (2R,5S)-4-(5-cyanopyrimidin-2-yl)-2,5-dimethylpiperazine-1-carboxylate]"
15,100 to 1000,"CC(=O)Nc1ccc(CN2CC3(CC(NC(=O)N4[C@H](C)CN(c5ncc(C(F)(F)F)cn5)C[C@@H]4C)C3)C2)cc1 [Compound 321, (2R,6S)-N-{2-[(4-acetamidophenyl)methyl]-2-azaspiro[3.3]heptan-6-yl}-2,6-dimethyl-4-[5-(trifluoromethyl)pyrimidin-2-yl]piperazine-1-carboxamide]"
16,10 to 100,"C[C@@H]1CN(c2cnc(C(F)(F)F)cn2)[C@@H](C)CN1C(=O)NC1CC2(C1)CN(Cc1ccc(Cl)cc1)C2 [Compound 260, (2R,5S)-N-{2-[(4-chlorophenyl)methyl]-2-azaspiro[3.3]heptan-6-yl}-2,5-dimethyl-4-[5-(trifluoromethyl)pyrazin-2-yl]piperazine-1-carboxamide]"
17,< 10,"C[C@@H]1CN(c2nc3ccc(C(F)(F)F)cc3o2)[C@@H](C)CN1C(=O)OC1CC2(C1)CN(Cc1ccccc1)C2 [Compound 430, 2-benzyl-2-azaspiro[3.3]heptan-6-yl (2R,5S)-2,5-dimethyl-4-[6-(trifluoromethyl)-1,3-benzoxazol-2-yl]piperazine-1-carboxylate]"
18,< 10,"C[C@@H]1CN(c2nc3cc(F)ccc3s2)C[C@H](C)N1C(=O)OC1CC2(C1)CN(Cc1ccccc1)C2 [Compound 438, 2-benzyl-2-azaspiro[3.3]heptan-6-yl (2R,6S)-4-(5-fluoro-1,3-benzothiazol-2-yl)-2,6-dimethylpiperazine-1-carboxylate]"
19,< 10,"C[C@@H]1CN(c2cnc3cc(C(F)(F)F)ccc3n2)C[C@H](C)N1C(=O)OC1CC2(C1)CN(Cc1ccccc1)C2 [Compound 378, 2-benzyl-2-azaspiro[3.3]heptan-6-yl (2R,6S)-2,6-dimethyl-4-[6-(trifluoromethyl)quinoxalin-2-yl]piperazine-1-carboxylate]"
20,< 10,"C[C@@H]1CN(c2ncc(C3CC3)cn2)C[C@H](C)N1C(=O)OC1CC2(C1)CN(Cc1ccccc1)C2 [Compound 506, 2-benzyl-2-azaspiro[3.3]heptan-6-yl (2R,6S)-4-(5-cyclopropylpyrimidin-2-yl)-2,6-dimethylpiperazine-1-carboxylate]"
21,10 to 100,"C[C@@H]1CN(c2ncc(C(F)(F)F)cn2)C[C@H](C)N1C(=O)NC1CC2(C1)CN(Cc1ccc(OC(F)F)cc1)C2 [Compound 322, (2R,6S)-N-(2-{[4-(difluoromethoxy)phenyl]meth-yl}-2-azaspiro[3.3]heptan-6-yl)-2,6-dimethyl-4-[5-(trifluoromethyl)pyrimidin-2-yl]piperazine-1-carboxamide]"
